From patent publication US8940762B2, “Methods for treating pain” (AbbVie Inc., priority 2010, dated 2015)

Assays:
[1] = system: osteoarthritic rats (MIA-induced osteoarthritis pain); test: Monoiodoacetate-induced osteoarthritis (MIA-OA) pain model, hind limb grip force; format: in vivo, Sprague-Dawley rats; details: for percent return of grip force to normalcy: n=6
Procedure: Pain behavior was assessed by measurement of hind limb grip force (GF) in adult osteoarthritic rats. Unilateral knee joint osteoarthritis was induced in rats by a single intraarticular (i.a.) injection of sodium monoiodoacetate (MIA) (Sigma, St. Louis, Mo.) (3 mg in 0.05 ml sterile isotonic saline) into the joint cavity using a 26 G needle under light (2-4%) isoflurane anesthesia, as previously described ([…]., Honore, P., 2009, Pharmacological modulation of movement-evoked pain in a rat model, Eur. J. […] Following injection, the animals were allowed to recover from the effects of anesthesia (usually 5-10 minutes) before returning them to their home cages. Grip strength was assessed in osteoarthritic rats as a measure of activity-induced pain. Measurements of peak hind limb grip force were conducted by recording the maximum compressive force (CFmax), in grams of force, exerted on the hind limb strain gauge, in a commercially available grip force measurement system (Columbus Instruments, Columbus, Ohio). During testing, each rat was gently restrained and allowed to grasp the wire mesh frame (10×12 cm) attached to the strain gauge. The animal was then moved in a rostral-to-caudal direction until the grip was broken. Each rat was sequentially tested twice at an approximately two-three minute interval to obtain a raw mean grip force (CFmax in gram force units). In order to account for the body weight differences among the rats, this raw mean grip force was converted to a maximum hind limb compressive force for each animal by dividing the CFmax by the body weight of the rat in kg [(CFmax in gram force)/kg body weight]. […] Compound A was administered in 10% DMSO/HBC vehicle orally at a volume of 2 ml/kg, 60 minutes before testing. The NSAID diclofenac (30 mg/kg, p.o.) was given 60 minutes before data collection and used as a positive control. A group of age-matched naïve (not injected with MIA) animals was added as a comparator to the drug-dosed groups. The vehicle control response for each group of MIA-treated animals was defined as the 0% response (0% effect), whereas the naïve control group was defined as the normal response and as 100% effect. The % effects for each dose group was expressed as % return of response to normalcy, compared to the naïve group. That is, the % effect=(Treatment CFmax-Vehicle CFmax)[…]]×100). Higher % effect numbers indicate increased relief from the pain in the model, with 100% indicating a return to the level of response seen in normal (non-osteoarthritic) animals. The data obtained from various dose groups for the test compound were compared with data from the naïve group.

[2] = system: CCI rats (sciatic nerve-induced neuropathic pain); details: single dose p.o.; at less than about 100 micromoles/kg, for example less than about 30 micromoles/kg
Text: Food and water were available ad libitum at all times except during testing. […]
The von Frey filaments were presented perpendicularly to the plantar surface of the selected hind paw, and then held in this position for approximately 8 seconds with enough force to cause a slight bend in the filament. Positive responses included an abrupt withdrawal of the hind paw from the stimulus, or flinching behavior immediately following removal of the stimulus.

Row | SMILES | percent return of grip force to normalcy ([1]; 3 μmol/kg p.o., 60 minutes before data collection, MIA rats) | percent return of grip force to normalcy ([1]; 10 μmol/kg p.o., 60 minutes before data collection, MIA rats) | percent return of grip force to normalcy ([1]; 30 μmol/kg p.o., 60 minutes before data collection, MIA rats) | ED50 (return of grip force to normalcy) ([1]; p.o., 60 minutes before testing, MIA rats) | change in Paw Withdrawal Threshold versus vehicle [2] | % Effect (return of grip force to normalcy) ([1]; 30 mg/kg p.o., 60 minutes before data collection, positive control)
1 | c1cc2cc(-c3ccc(O[C@H]4C[C@H]5CC[C@@H](C4)N5)cn3)ccc2[nH]1 [Compound A, 5-(5-((1R,3r,5S)-8-azabicyclo[3.2.1]octan-3-yloxy)pyridine-2-yl)-1H-indole] | approximately 39% | ~60% | ~73% | approximately 6 μmol/kg | statistically significant change | 
2 | O=C(O)Cc1ccccc1Nc1c(Cl)cccc1Cl [diclofenac, reference compound] |  |  |  |  |  | about 69%
